US20080113918A1, “AGONIST POLYPEPTIDE OF RECEPTOR FOR ZOT AND ZONULIN” (University of Maryland - Baltimore, priority 2003, published 2008)
No end group written: not given here.

What was measured:
[1] = tested on: PAR-2; assay: FZI/0-PAR-2 AP competitive binding in Caco2 cells; set-up: species or system human
Experimental: FIGS. 4A-4D. FZI/0-PAR-2 AP competitive binding experiments.
FZI/0-PAR-2 AP competitive binding experiments. The activation of PAR-2 requires binding of either its tryptase-generated, cleaved N-terminal portion or the synthetic peptide equivalent, PAR-2 AP, to the receptor's extracellular loop 2 (ECL2) (47). To establish whether FZI/0 binds to the same receptor domain, competitive binding experiments were conducted in Caco2 cells. Cell monolayers were incubated with FITC-FZI/0 (2×10^−8M)) either in the presence of an excess of PAR-2 AP (10^−6M) or a scrambled peptide and then analyzed by fluorescence microscopy.

[2] = tested on: wild-type mouse intestinal tissues; assay: Intestinal TEER in wild-type mice tissues
[3] = tested on: Caco2 cell monolayers; assay: PAR-2 AP-induced actin rearrangement in Caco2 cell monolayers; assay type: cell-based, human; conditions: 10^−6M PAR-2 AP, Caco2, vs BSA
Excerpt: FIGS. 5A to 5D. Actin cytoskeleton arrangement in Caco2 cells exposed to PAR2-AP (FIG. 5A), BSA (FIG. 5B), PAR2-AP+FZI/0 (FIG. 5C), or PAR-2 AP+FZI/1 (FIG. 5D).
Effect of the Zot/zonulin inhibitor FZI/0 on PAR-2 AP-induced actin rearrangement. It has been recently reported that activation of PAR-2 receptor by PAR-2 AP promotes cytoskeletal reorganization (53). To establish whether this effect can be prevented by the synthetic Zot/zonulin peptide inhibitor, FZI/0, immunofluorescence studies were conducted in Caco2 cell monolayers. […] These cytoskeletal changes were blocked by the pre-incubation with 2×10^−6M FZI/0 (FIG. 5C), but not by the scrambled peptide FZI/1 (FIG. 5D). Therefore, PAR-2 AP and FZI/0 appear to bind to the identical structure on enterocytes.

## GGVLVQPG [FZI/0]
[1]; FITC-labelled FZI/0 vs media control
  binding to Caco2 cells (fluorescent particles): significant number of fluorescent particles

## SLIGRL [PAR-2 AP]
[2]
  intestinal resistance (TEER) over time: comparable drop in intestinal resistance
[3]
  actin cytoskeleton arrangement: dissolution of stress fibers
[1]; FITC-FZI/0 2×10^−8M, excess of competitor (PAR-2 AP 10^−6M; 100×)
  displacement of FITC-FZI/0 binding: significant reduction of FZI/0 immunofluorescent staining particles
